The assay deals with caspase-3. The experiment in a line: Cleavage of caspase-3 in HT1080 cells. The class given is cell-based, human. The settings on record: 2.5 μM. As to the method:
A. Effect of irestatin 9389 on PERK and ATF6 pathways. HT1080 cells were treated with vehicle alone (lanes 1-4) or 2.5 μM irestatin 9389 (lanes 5-8) and cultured under aerobic conditions for 18 hours (N) or shifted to hypoxia for the indicated times. Protein lysates were analyzed by Western blot analysis using antisera specific for ATF6 (top), CHOP/GADD153 (middle) or actin (bottom). Arrow indicates the cleaved, transcriptionally active form of ATF6. B. Cleavage of caspase-3 in irestatin-treated cells under hypoxia. HT1080 cells were cultured in normoxia (N) or under hypoxia for 36 hours (H 36) in absence or presence of irestatin 9389 (2.5 μM). Arrows indicate proteolytically cleaved caspase-3. C. Colony formation assay. HT1080 cells were treated as in B under normoxia (N) or hypoxia for 48 hours (H 48). Cells were harvested, counted, and allowed to grow under normal culture conditions for 11-12 days. Colonies were visualized with crystal violet staining. D. Quantification of clonogenic survival assay. Values represent the mean+/−SEM from at least 4 independent experiments. E. TUNEL staining of cells treated as in C. F. Quantification of TUNEL-positive cells. Values represent the mean+/−SEM from at least 3 experiments. […] Cells were harvested at the indicated times and counted by hemocytometer. Values represent the mean calculated from triplicate experiments +/−SEM. […]

As to `Cc1csc(NC(=O)CSc2nc3c(c(C(F)(F)F)c2C#N)CCC3)n1` [Compound 9389], the “cleavage of caspase-3 under hypoxia” value (36 hours of hypoxia) was “stimulated cleavage of caspase-3”. Also, under “normal oxygen conditions”, the “caspase-3 processing under normal oxygen” value was “no effect on caspase-3 processing”.

For the origin of these results see patent US20090291857A1, “METHODS TO IDENTIFY INHIBITORS OF THE UNFOLDED PROTEIN RESPONSE” (THE BOARD OF TRUSTEES OF THE LELAND STANFORD JUNIOR …, priority 2006, published 2009).
